Assay results taken from patent publication US6375942B1, “Skin healing ointment” (priority 1999, dated 2002).

Test system: severe persistent rash caused by poison ivy
Test: Case 1: ointment test on sufferer
Type: in vivo, Human
Details: adult; prescribed by dermatologist
Text: They then sought out other sufferers on whom to test their ointment. The results follow:
Case 1: adult suffering from severe persistent rash caused by poison ivy. […] Application of ointment only once per day completely healed subject in 2½ days.

CCCCC(=O)O[C@]1(C(=O)CO)[C@@H](C)C[C@H]2[C@@H]3CCC4=CC(=O)C=C[C@]4(C)[C@@]3(F)[C@@H](O)C[C@@]21C [valisone]
outcome of prescribed treatment: without success
